These results are taken from patent US7772180B2, “Hepatitis C virus inhibitors” (Bristol-Myers Squibb Company, priority 2006, dated 2010).

Test [1] deals with HCV replicon (strain 1b) in HUH-7 cells. As to the kind of experiment: HCV replicon FRET assay. The class given is cell-based, Hepatitis C virus.
The target in test [2] is T1, HCV NS3/4A protease complex, BMS strain (UniProt P27958, species not given/STRAIN_BMS).
T1 construct: other: NS3/4A BMS strain; activity range class; numeric values, unit not given; said of H77 and J4L6S; fused on or other part: A three-lysine solubilising tail at the C-terminus of NS4A; A His tag is implied by the pET21b vector and Ni-NTA purification; Both are printed for the H77 and J4L6S constructs and apply to BMS by inference
The test is described as follows: FRET peptide assay to monitor HCV NS3/4A proteolytic activity (BMS strain). Format: biochemical, Hepatitis C virus (genotype 1a). The method in brief: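 Inhibition measured by real-time fluorescence increase as the protease cleaves RET S1 FRET depsipeptide (2 μM final). Enzyme: >90% pure BMS-strain (1a) NS3/4A at 2-3 nM final, or 300 pM with 50 μg/ml BSA for potent compounds. Buffer: 50 mM HEPES pH 7.5, 0.15 M NaCl, 0.1% Triton, 15% glycerol, 10 mM βME.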

The mark [3] stands for this setting: read-out: HCV Pro Replicon (EC50), HCV replicon cell assay, activity range class.
[4] abbreviates: read-out: HCV Protease (IC50); NS3/4A BMS strain; activity range class.
[5] abbreviates: Hepatitis C virus, Huh-7, read-out: HCV Pro Replicon (EC50), HCV replicon cell assay, activity range class.

Read-outs that look alike come from different tables or passages of the source.

T1 sequence (P27958 1027-1657, change not shown, one chain of several): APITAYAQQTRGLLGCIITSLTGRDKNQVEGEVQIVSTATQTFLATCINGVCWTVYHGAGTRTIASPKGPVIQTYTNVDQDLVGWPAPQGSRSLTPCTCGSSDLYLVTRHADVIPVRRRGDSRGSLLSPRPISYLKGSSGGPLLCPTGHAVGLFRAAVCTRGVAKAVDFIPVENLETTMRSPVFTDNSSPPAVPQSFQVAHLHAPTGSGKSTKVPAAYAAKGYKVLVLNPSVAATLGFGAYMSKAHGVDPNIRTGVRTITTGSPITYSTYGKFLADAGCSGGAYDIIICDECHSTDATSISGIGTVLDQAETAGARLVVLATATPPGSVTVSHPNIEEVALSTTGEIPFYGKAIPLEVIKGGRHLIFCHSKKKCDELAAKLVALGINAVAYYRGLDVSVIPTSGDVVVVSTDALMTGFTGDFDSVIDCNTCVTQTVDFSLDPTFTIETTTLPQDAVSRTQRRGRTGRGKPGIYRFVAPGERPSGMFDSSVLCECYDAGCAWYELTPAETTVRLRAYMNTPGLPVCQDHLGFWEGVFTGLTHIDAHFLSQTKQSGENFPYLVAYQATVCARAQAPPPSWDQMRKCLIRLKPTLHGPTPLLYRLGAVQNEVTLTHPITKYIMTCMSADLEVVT

In the case of `C=C[C@@H]1C[C@]1(NC(=O)[C@@H]1C[C@@H](Oc2ncc(OC)c3ccc(Cl)cc23)CN1C(=O)[C@@H](Nc1ccc(C(=O)OC(C)(C)C)cc1)C(C)(C)C)C(=O)NS(=O)(=O)C1CC1` [204 first isomer, tert-butyl 4-((S)-1-((2S,4R)-4-(7-chloro-4-methoxyisoquinolin-1-yloxy)-2-((1R,2S)-1-(cyclopropylsulfonylcarbamoyl)-2-vinylcyclopropylcarbamoyl)pyrrolidin-1-yl)-3,3-dimethyl-1-oxobutan-2-ylamino)benzoate], the EC50 (in general, the midpoint of the concentration-response curve) in test [1] (setting [3]) lay in the range of 3 to 100 nM. Besides, the half-inhibitory concentration (IC50) (commonly the concentration that gives 50% inhibition) in test [2] (setting [4]) lay within 0.6 to 20 nM.
Take `C=C[C@@H]1C[C@]1(NC(=O)[C@@H]1C[C@@H](Oc2nccc3cc(OC)ccc23)CN1C(=O)C(Nc1cc(C#N)ccn1)C(C)C)C(=O)NS(=O)(=O)C1CC1` (mixture of isomers) [Compound 11, N-(4-cyano-2-pyridinyl)valyl-(4R)—N-((1R,2S)-1-((cyclopropylsulfonyl)carbamoyl)-2-vinylcyclopropyl)-4-((6-methoxy-1-isoquinolinyl)oxy)-L-prolinamide]: the EC50 in test [1] (setting [5]) was in the range of 3 to 100 nM. In test [2] (setting [4]), the 50% inhibitory concentration (IC50) was in the range of 0.6 to 20 nM.
Consider “(4R)-4-((7-chloro-4-methoxy-1-isoquinolinyl)oxy)-N-((1R,2S)-1-((cyclopropylsulfonyl)carbamoyl)-2-vinylcyclopropyl)-1-((2R)-2-((4-ethoxy-1,2,5-thiadiazol-3-yl)amino)butanoyl)-L-prolinamide [Compound 233B]”, for which the EC50 in test [1] (HCV replicon cell assay, numeric values, unit inferred, read-out: HCV Pro Replicon (EC50)) is 2630 nM. In addition, the IC50 in test [2] (NS3/4A BMS strain; numeric values, unit inferred; read-out: HCV Protease (IC50)) was 1300 nM.
For the compound `C=C[C@@H]1C[C@]1(NC(=O)[C@@H]1C[C@@H](Oc2ncc(OC)c3ccc(Cl)cc23)CN1C(=O)[C@@H](Nc1cccc(S(=O)(=O)NC(C)(C)C)c1)C(C)(C)C)C(=O)NS(=O)(=O)C1CC1` [206 first isomer, N-(3-(tert-butylsulfamoyl)phenyl)-3-methyl-L-valyl-(4R)-4-((7-chloro-4-methoxy-1-isoquinolinyl)oxy)-N-((1R,2S)-1-((cyclopropylsulfonyl)carbamoyl)-2-vinylcyclopropyl)-L-prolinamide], the EC50 in test [1] (setting [5]) lay within 3 to 100 nM. For the same compound, the 50% inhibitory concentration (IC50) in test [2] (setting [4]) is 0.6 to 20 nM.
Regarding `C=C[C@@H]1C[C@]1(NC(=O)[C@@H]1C[C@@H](Oc2ncc(OC)c3ccc(Cl)cc23)CN1C(=O)[C@@H](Nc1ccc(S(=O)(=O)NCC)cc1)C(C)(C)C)C(=O)NS(=O)(=O)C1CC1` [223 first isomer, N-(4-(ethylsulfamoyl)phenyl)-3-methyl-L-valyl-(4R)-4-((7-chloro-4-methoxy-1-isoquinolinyl)oxy)-N-((1R,2S)-1-((cyclopropylsulfonyl)carbamoyl)-2-vinylcyclopropyl)-L-prolinamide], the 50% effective concentration (EC50) in test [1] (setting [5]) lay in the range of 100 to 1000 nM. For the same compound, in test [2] (setting [4]), the IC50 is 0.6 to 20 nM.
For `C=C[C@@H]1C[C@]1(NC(=O)[C@@H]1C[C@@H](Oc2nccc3cc(OC)ccc23)CN1C(=O)C(Nc1ccc(OC)nc1)C(C)(C)C)C(=O)NS(=O)(=O)C1CC1` (single isomer, unassigned) [407 second isomer], the EC50 in test [1] (setting [3]) fell in the range of 100 to 1000 nM. The IC50 in test [2] (setting [4]) lay in the range of 0.6 to 20 nM.
Take `C=C[C@@H]1C[C@]1(NC(=O)[C@@H]1C[C@@H](Oc2ncc(OC)c3ccc(Cl)cc23)CN1C(=O)C(C)Nc1nsnc1OC)C(=O)NS(=O)(=O)C1CC1` (some centres unmarked) [Compound 238]: in test [1] (setting [5]), the 50% effective concentration (EC50) is 100 to 1000 nM. In test [2] (setting [4]), the IC50 is 20 to 200 nM.
`C=C[C@@H]1C[C@]1(NC(=O)[C@@H]1C[C@@H](Oc2ncc(OC)c3ccc(Cl)cc23)CN1C(=O)[C@@H](Nc1ccc(C#N)cc1)C(C)(C)C)C(=O)NS(=O)(=O)C1CC1` [205 first isomer, N-(4-cyanophenyl)-3-methyl-L-valyl-(4R)-4-((7-chloro-4-methoxy-1-isoquinolinyl)oxy)-N-((1R,2S)-1-((cyclopropylsulfonyl)carbamoyl)-2-vinylcyclopropyl)-L-prolinamide]: in test [1] (setting [5]), the concentration giving a half-maximal response (EC50) was 3 to 100 nM. Moreover, the half-maximal inhibitory concentration (IC50) in test [2] (setting [4]) was in the range of 0.6 to 20 nM.
As to `C=C[C@@H]1C[C@]1(NC(=O)[C@@H]1C[C@@H](Oc2nc(N(C)C)cc3cc(OC)ccc23)CN1C(=O)C(Nc1ccccc1)C(C)(C)C)C(=O)NS(=O)(=O)C1CC1` (single isomer, unassigned) [Compound 19B], in test [1] (Hepatitis C virus, Huh-7, read-out: HCV Pro Replicon (EC50), HCV replicon cell assay, numeric values, unit inferred), the concentration giving a half-maximal response (EC50) was 1850 nM. Moreover, the 50% inhibitory concentration (IC50) in test [2] (read-out: HCV Protease (IC50); NS3/4A BMS strain; numeric values, unit inferred) was 1000 nM.
`C=C[C@@H]1C[C@]1(NC(=O)[C@@H]1C[C@@H](Oc2ncc(OC)c3ccc(Cl)cc23)CN1C(=O)[C@H](Nc1ccc(S(=O)(=O)NCC)cc1)C(C)(C)C)C(=O)NS(=O)(=O)C1CC1` [223 second isomer, N-(4-(ethylsulfamoyl)phenyl)-3-methyl-D-valyl-(4R)-4-((7-chloro-4-methoxy-1-isoquinolinyl)oxy)-N-((1R,2S)-1-((cyclopropylsulfonyl)carbamoyl)-2-vinylcyclopropyl)-L-prolinamide]: the EC50 in test [1] (setting [5]) is above 1000 nM. The IC50 in test [2] (setting [4]) was above 200 nM.
Taken in the same sequence, the figures for `C=C[C@@H]1C[C@]1(NC(=O)[C@@H]1C[C@@H](Oc2ncc(OC)c3ccc(Cl)cc23)CN1C(=O)[C@H](Nc1cccc(S(=O)(=O)NC)c1)C(C)(C)C)C(=O)NS(=O)(=O)C1CC1` [227 second isomer, 3-methyl-N-(3-(methylsulfamoyl)phenyl)-D-valyl-(4R)-4-((7-chloro-4-methoxy-1-isoquinolinyl)oxy)-N-((1R,2S)-1-((cyclopropylsulfonyl)carbamoyl)-2-vinylcyclopropyl)-L-prolinamide] were above 1000 nM and above 200 nM.
On to `C=C[C@@H]1C[C@]1(NC(=O)[C@@H]1C[C@@H](Oc2nc(N(C)C)cc3c(OC)cccc23)CN1C(=O)C(Nc1cccc(C)n1)C(C)(C)C)C(=O)NS(=O)(=O)C1CC1` (single isomer, unassigned) [Compound 38A], for which the EC50 in test [1] (setting [5]) lay within 3 to 100 nM. Further, the IC50 in test [2] (setting [4]) was in the range of 0.6 to 20 nM.
As for `C=C[C@@H]1C[C@]1(NC(=O)[C@@H]1C[C@@H](Oc2ncc(OC)c3ccc(Cl)cc23)CN1C(=O)[C@@H](Nc1cccc(F)c1F)C(C)(C)C)C(=O)NS(=O)(=O)C1CC1` [208 first isomer, N-(2,3-difluorophenyl)-3-methyl-L-valyl-(4R)-4-((7-chloro-4-methoxy-1-isoquinolinyl)oxy)-N-((1R,2S)-1-((cyclopropylsulfonyl)carbamoyl)-2-vinylcyclopropyl)-L-prolinamide], in test [1] (setting [5]), the EC50 is 3 to 100 nM. In test [2] (setting [4]), the 50% inhibitory concentration (IC50) fell in the range of 0.6 to 20 nM.
With `C=C[C@@H]1C[C@]1(NC(=O)[C@@H]1C[C@@H](Oc2ncc(OC)c3ccc(Cl)cc23)CN1C(=O)[C@H](Nc1cccc(C(=O)OC(C)C)c1)C(C)(C)C)C(=O)NS(=O)(=O)C1CC1` [231 second isomer, N-(3-(isopropoxycarbonyl)phenyl)-3-methyl-D-valyl-(4R)-4-((7-chloro-4-methoxy-1-isoquinolinyl)oxy)-N-((1R,2S)-1-((cyclopropylsulfonyl)carbamoyl)-2-vinylcyclopropyl)-L-prolinamide], the concentration giving a half-maximal response (EC50) in test [1] (setting [5]) was above 1000 nM. In test [2] (setting [4]), the IC50 was above 200 nM.
As to `C=CCCCCCC(Nc1ccc(OC)nc1)C(=O)N1C[C@H](Oc2ncc(OC)c3ccc(Cl)cc23)C[C@H]1C(=O)N[C@]1(C(=O)NS(=O)(=O)C2CC2)C[C@H]1C=C` (some centres unmarked) [Compound 411], in test [1] (setting [3]), the half-maximal effective concentration (EC50) was in the range of 100 to 1000 nM. In test [2] (setting [4]), the 50% inhibitory concentration (IC50) is above 200 nM.
In the case of `C=C[C@@H]1C[C@]1(NC(=O)[C@@H]1C[C@@H](Oc2ncc(OC)c3ccc(Cl)cc23)CN1C(=O)[C@@H](Nc1ccccc1F)C(C)(C)C)C(=O)NS(=O)(=O)C1CC1` [234 first isomer, N-(2-fluorophenyl)-3-methyl-L-valyl-(4R)-4-[(7-chloro-4-methoxy-1-isoquinolinyl)oxy]-N-((1R,2S)-1-{[(cyclopropylsulfonyl)amino]carbonyl}-2-vinylcyclopropyl)-L-prolinamide], the concentration giving a half-maximal response (EC50) in test [1] (setting [5]) was in the range of 100 to 1000 nM. The half-maximal inhibitory concentration (IC50) in test [2] (setting [4]) was 20 to 200 nM.
In the case of `C=C[C@@H]1C[C@]1(NC(=O)[C@@H]1C[C@@H](Oc2ncc(OC)c3ccc(Cl)cc23)CN1C(=O)[C@@H](Nc1cccc(S(=O)(=O)N(C)C)c1)C(C)(C)C)C(=O)NS(=O)(=O)C1CC1` [219 first isomer, N-(3-(dimethylsulfamoyl)phenyl)-3-methyl-L-valyl-(4R)-4-((7-chloro-4-methoxy-1-isoquinolinyl)oxy)-N-((1R,2S)-1-((cyclopropylsulfonyl)carbamoyl)-2-vinylcyclopropyl)-L-prolinamide], the EC50 in test [1] (setting [5]) is above 1000 nM. For the same compound, in test [2] (setting [4]), the IC50 is above 200 nM.
`C=C[C@@H]1C[C@]1(NC(=O)[C@@H]1C[C@@H](Oc2nccc3cc(OC)ccc23)CN1C(=O)[C@@H](Nc1cc(C)cc(C)n1)C(C)C)C(=O)NS(=O)(=O)C1CC1` [Compound 1A, N-(4,6-dimethyl-2-pyridinyl)-L-valyl-(4R)—N-((1R,2S)-1-((cyclopropylsulfonyl)carbamoyl)-2-vinylcyclopropyl)-4-((6-methoxy-1-isoquinolinyl)oxy)-L-prolinamide]: the EC50 in test [1] (setting [5]) lay within 3 to 100 nM. Moreover, in test [2] (setting [4]), the IC50 fell in the range of 0.6 to 20 nM.
For `C=C[C@@H]1C[C@]1(NC(=O)[C@@H]1C[C@@H](Oc2ncc(OC)c3ccc(Cl)cc23)CN1C(=O)[C@@H](Nc1ccc(S(N)(=O)=O)cc1)C(C)(C)C)C(=O)NS(=O)(=O)C1CC1` [Compound 215A, 3-methyl-N-(4-sulfamoylphenyl)-L-valyl-(4R)-4-((7-chloro-4-methoxy-1-isoquinolinyl)oxy)-N-((1R,2S)-1-((cyclopropylsulfonyl)carbamoyl)-2-vinylcyclopropyl)-L-prolinamide], in test [1] (setting [5]), the EC50 fell in the range of 3 to 100 nM. In addition, the IC50 in test [2] (setting [4]) fell in the range of 0.6 to 20 nM.
